# Experimental data taken from ChEMBL document CHEMBL1158753, “Ammodendrine and N-methylammodendrine enantiomers: isolation, optical rotation, and toxicity” (J Nat Prod, 2005).
# Experiment: […] against iv dosed Swiss-Webster mouse
# Format: organism-based
# Conditions: in vivo
row,Compound,LD50 [mg/kg]
1,CC(=O)N1C=C([C@@H]2CCCCN2)CCC1,115
2,CC(=O)N1C=C([C@@H]2CCCCN2C)CCC1,63.4
3,CC(=O)N1C=C([C@H]2CCCCN2C)CCC1,56.3
4,CC(=O)N1C=C([C@H]2CCCCN2)CCC1,94.1
